We go through two compounds from patent US12415939B2, “Nano-adhesive and surface primer compound and use thereof” (The Regents of the University of California, priority 2015, dated 2025).

Series [1] in a line: Cyclic voltammetry of catechol oxidation. The class given is physicochemical. As to conditions: 5 mM in DI water. As to the method:
(§1) Cyclic voltammetry was performed on a Versastat 3 potentiostat from Ametek Co. These analyses were carried out using a three-electrode cell: a Pt wire as the counter electrode, an Ag/AgCl reference electrode, and a Carbon paste electrode (CPE) served as the working electrode. CPE is the best choice for adhesive materials because of its ability to be completely polished before each experiment. Catechol auto-oxidation was avoided by performing all electrochemical experiments with degassed deionized water in a glove bag under argon. Scan rate 1 mV s-1 was used for all experiments. CV of 5 mM synthesized polymers and 5 mM methyl catechol, a simple catechol-containing compound, were compared. Oxidation of Catechol carrying molecules occurred at more positive potentials than methyl catechol, indicating the unique structure of the dispersions provide shielding effects that stabilized catechol groups (FIG. 3).
Cyclic voltammetry was performed on a Versastat 3 potentiostat from Ametek Co. (Berwyn, PA). These analyses were carried out using a three-electrode cell: a Pt wire as the counter electrode, an Ag/AgCl reference electrode, and a Carbon paste electrode (CPE) served as the working electrode. CPE is the best choice for adhesive materials because of its ability to be completely polished before each experiment.
as §1, with “s^−1” for “s-1”, “molecules” for “polymers”, “groups. Z-Cat-Ben with an oxidation peak at 840 mV is more resistant to oxidation than the other species” for “groups”, “42).” for “3).”

Series [2] in a line: Surface forces apparatus (SFA) cohesion/adhesion between thin films on mica. The class given is physicochemical. As to the method:
The interaction between two surfaces can be measured with nano-Newton level force resolution and Angstrom level resolution in the separation distance between the surfaces. The details of the SFA techniques have been describe in a work by Israelachvili et al. In a typical SFA experiment (FIG. 2C), the distance and the force between the surfaces are measured simultaneously. To begin with, the instrument is calibrated at large separation distances. When the two surfaces are not interacting, i.e., they are separated by large distances, the change in the separation between them is equal to the distance through which the motor moves the lower surface towards or away from the upper surface (or the upper surface driven by the piezo-tube moves towards the lower surface). However, once the surfaces are close enough to start interacting with each other, the measured separation distance deviates from the expected separation calibrated when there is no force between the surfaces. This deviation is due to the deflection of the double cantilever spring and is directly proportional to the force acting normally between the two opposing surfaces. Thus the normal force can be measured using Hooke's law, F=kΔx, where k is the spring constant of the double-cantilever spring and Δx=Dactual−Dapplied is the deflection of the spring, determined by taking the difference between the applied change in position of one of the surfaces Dapplied and the actual change in distance measured between the surfaces Dactual. The actual distance, Dactual, between the surfaces can be measured by multiple beam interferometry (MBI) and will be discussed below.
The distance between the surfaces, shape of the interface and the refractive index of the media between the surfaces can be accurately determined by Multiple Beam Interferometry (MBI) technique. In this technique, white light is directed through two back-silvered mica surfaces (or uniform and same thickness). As a white light passes between the mica surfaces, it undergoes interference due to the optical trap set up by the back silver on each of these surfaces giving rise to discrete wavelengths of light (FIG. 2C). These wavelengths of light are resolved in a spectrometer creating interference fringes known as ‘fringes of equal chromatic order’ (FECO). Since mica is birefringent, the FECO appears as doublets and termed as β and γ. Alternate fringes are termed as odd and even fringes with odd fringes having nodes at the center and even fringes with anti-nodes in the center. The FECO is then recorded on a camera and analyzed to determine the distance between the surfaces using the following equations: […]
The adhesion/cohesion energy of the synthetic zwitterionic molecules was investigated in SFA (SurForce LLC, Santa Barbara, CA). Two molecularly smooth freshly cleaved back silvered mica surfaces glued on cylindrical silica discs of radius of curvature, R˜2 cm, were mounted in the SFA and 50 μL of a colloidal dispersion of the synthetic molecules in DI water were injected between the surfaces at different concentrations (C=0.5-5 mM) and the forces between the thin films of the molecules were measured by Multiple Beam Interferometry (MBI). The adhesion forces between Z-Cat-C10 molecules on various surfaces, e.g., silica and copper, were also measured by AFM (MFP-3D, Asylum research, Goleta, CA) in DI water and ambient conditions, respectively, at room temperature. AFM probes with a silicon dioxide particle (10, 5, and 1 μm, respectively) on a silicon nitride (SN) cantilever-0.6 N m^−1 were purchased from Novascan Technologies, Inc (Ames, IA). Cantilever spring constants were measured for each force run. Images of Z-Cat-C10 coating on silicon wafer and copper plates were visualized in an AFM. […]

Series [3] can be described thus: Contact angle measurements on SAM-modified substrates. The format is physicochemical. As to conditions: SAM-modified nano-grooved SiO2. As to the method:
The nano-grooved SiO2 substrates passivated with Z-Cat-Ben or Z-Cat-Ben-F SAMs were prepared with the same procedure described above. For the reference substrate, the pre-cleaned and ultraviolet/ozone-treated (for 10 min) nano-grooved SiO2 substrate was passivated with n-decyltrichlorosilane (Gelest Inc.) in toluene solution (1% by volume) at 80° C. for 20 min in ambient air. Then, the substrate was subsequently sonicated in toluene and rinsed with additional toluene several times. Anhydrous chlorobenzene (50 μL) was used as a droplet dropping on the substrates. All contact angle images were taken at the direction perpendicular to nano-grooves in the substrates using Dataphysics OCA 15EC goniometer.

A short description of series [4]: OFET characterization (saturation hole mobility). The text has this: The OFETs were fabricated onto nano-grooved SiO2 substrates prepared by rubbing n^++Si (500 μm)/SiO2 (300 nm) substrate (International Wafer Services Co.) with a diamond lapping disc with particle sizes of 100 nm (Allied High Tech Products Inc.) as described in detail in the previous reports. The Ni (5 nm)/Au (50 nm) source and drain electrodes were patterned on the SiO2 dielectrics through a conventional photolithography process. For OFETs with Ni source and drain electrodes, an additional Ni (10 nm) layer was deposited on top of the pre-deposited Au electrodes. All metal electrodes were deposited by electron beam evaporation at 7×10^−7 Torr. Then, the substrates were sonicated in acetone and isopropanol for cleaning, and were kept in an oven at >100° C. for overnight. After ultraviolet/ozone treatment of pre-cleaned nano-grooved SiO2 substrates for 10 min, the substrates were passivated with the Z-Cat-Ben or Z-Cat-Ben-F SAM by dropping SAM water solution (5 mM) onto the substrates for ˜1 min. The substrates were subsequently rinsed with deionized water for ˜1 min, and were kept in a low vacuum for 10 min to remove residual water. The PCDTPT (1-Material Inc.) was then cast from a chlorobenzene solution (0.25 mg mL^−1) through the sandwich casting in a nitrogen-filled glove box. The devices were then cured at 200° C. for 1 min prior to measurements, and were tested using a probe station (Signatone Co.) in a nitrogen-filled glove box. Data were collected by a Keithley 4200 system.
The field-effect mobilities in the saturation regime were extracted using the following equation, IDS=(W/2L)Cμ(VGS−VT)^2 (7) where, W is the channel width, L is the channel length, C is the gate dielectric capacitance per unit area, μ is the carrier mobility in the saturation regime, IDS is the drain-source current, and VGS is the gate-source voltage. Channel width/length is 1000/200 μm for the devices used in this study. Transistor Characteristics of OFETs with Z-Cat-Ben and Z-Cat-Ben-F: Contact Angle Measurements: […]

Series [5] in a line: Lap shear test of cured PMA resin on primed mica. As to conditions: first value of each pair (mica). As to the method: (§2) 1 wt % primer solution was spread on mica, glass, tooth enamel, or a silicon wafer and incubated for 1 min, followed by thorough washing with methanol (for MDP, P1-P3) or DMSO (for P4) and drying by flowing nitrogen. The surfaces were exposed to a basic aqueous solution (pH 9, using sodium hydroxide), incubated for 1 min, and drying by flowing nitrogen (see FIG. 52). The methacrylic comonomer blend (Bis-GMA, TEGDMA, DMAEMA and CQ) was packed in a gelatin capsule (size #4, 5-mm diameter, Torpac Inc.) and placed up on top of the primer-treated substrates. The comonomer blend was cured (or crosslinked) for 1 min using a portable dental curing lamp (Foshan Liang Ya Dental Co., LY-A180, 420-480 nm, 1200-2000 mW·cm^−2) (see FIG. 53). Uniaxial compression was applied to the capsule at a rate of 0.05 inch min^−1 using a materials testing system (MTS Bionix 200) until the capsules are separated from the substrate. The lap shear fracture measurements were repeated at least 10 times for each condition.

A short description of series [6]: Lap shear test of cured PMA resin on primed silica/glass. As to conditions: second value of each pair (silica). As to the method: as §2
A short description of series [7]: Lap shear test of cured PMA resin on primed tooth enamel. Further details: species or system human. As to the method: as §2

Structures are written as SMILES.

For `C[N+](C)(CCCc1cc(C(F)(F)F)cc(C(F)(F)F)c1)CCOP(=O)([O-])OCCCc1ccc(O)c(O)c1` [Z-Cat-Ben-F], the “stability in water to oxidation (shelf life)” value in series [1] is reported as “stable (shelf life) in water to oxidation”. Besides, in series [2] (5 mM in DI water, mica), the “cohesion energy Wc between SAMs” value is reported as 3.3±1.0 mJ/m^2. This compound also registered a hard-wall thickness in series [2] (SAMs from 5 mM, mica) of 2.6±0.4 nm. Besides, in series [2] (half of hard-wall), the “SAM thickness on each mica surface” value is reported as ~1.3 nm. The “contact angle θ of chlorobenzene droplet” value in series [3] is given as < 10 °. Further, the “saturation hole mobility μ” value in series [4] (Au source and drain electrodes) was 26±5 cm^2 V^−1 s^−1. In series [4] (Ni source and drain electrodes), this compound showed a saturation hole mobility of 46±4 cm^2 V^−1 s^−1.

Take `C=CC(=O)OCCC[Si](OC)(OC)OC` [Silane, 3-trimethoxysilylpropyl acrylate, reference compound]: the “lap shear strength σshear,max” value in series [5] is given as 0.9±0.4 MPa; in series [6], 3.8±1.1 MPa; in series [7], “no increase in the lap shear strength”.
